Source: patent US8192962B2, “Processes for detecting toxic substances” (Daikin Industries, Ltd., priority 2001, dated 2012)

Test system: Unknown protein yeast genes
Test: DNA chip mRNA expression in yeast, unknown protein yeast genes (Table 1)
Assay type: cell-based, Saccharomyces cerevisiae S288C
How it was run: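 Expression change after 2 h toxicant exposure (growth-inhibiting, sub-lethal) of log-phase S. cerevisiae S288C at 25° C. Oligo-dT-purified mRNA was labeled with Cy3-dUTP or Cy5-dUTP and hybridized >12 h at 65° C. to a genome-wide chip; ratio of scanned fluorescence to control.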

CCCCC[C@H](O)CC(=O)CCc1ccc(O)c(OC)c1 [(13), gingerol]
The level of expressed mRNA in the presence of chemical substance/The level of expressed mRNA in the absence of chemical substance (yeast gene YLR415C): 1.0
The level of expressed mRNA in the presence of chemical substance/The level of expressed mRNA in the absence of chemical substance (yeast gene YLR421C, incubated two hours with substance): 1.6
The level of expressed mRNA in the presence of chemical substance/The level of expressed mRNA in the absence of chemical substance (yeast gene YLR427W): 2.5
The level of expressed mRNA in the presence of chemical substance/The level of expressed mRNA in the absence of chemical substance (yeast gene YLR460C): 0.7
The level of expressed mRNA in the presence of chemical substance/The level of expressed mRNA in the absence of chemical substance (yeast gene YML013W): 1.2
The level of expressed mRNA in the presence of chemical substance/The level of expressed mRNA in the absence of chemical substance (yeast gene YML029W): 2.0
The level of expressed mRNA in the presence of chemical substance/The level of expressed mRNA in the absence of chemical substance (yeast gene YML041C): 1.2
The level of expressed mRNA in the presence of chemical substance/The level of expressed mRNA in the absence of chemical substance (yeast gene YML079W): 1.6
The level of expressed mRNA in the presence of chemical substance/The level of expressed mRNA in the absence of chemical substance (yeast gene YMR068W): 1.4
The level of expressed mRNA in the presence of chemical substance/The level of expressed mRNA in the absence of chemical substance (yeast gene YMR071C): 1.3
The level of expressed mRNA in the presence of chemical substance/The level of expressed mRNA in the absence of chemical substance (yeast gene YMR102C, incubated two hours with chemical substance): 4.4
The level of expressed mRNA in the presence of chemical substance/The level of expressed mRNA in the absence of chemical substance (yeast gene YMR160W): 1.6
The level of expressed mRNA in the presence of chemical substance/The level of expressed mRNA in the absence of chemical substance (yeast gene YMR258C, incubated two hours with substance): 1.6
The level of expressed mRNA in the presence of chemical substance/The level of expressed mRNA in the absence of chemical substance (yeast gene YMR315W): 2.5
The level of expressed mRNA in the presence of chemical substance/The level of expressed mRNA in the absence of chemical substance (yeast gene YNL026W): 1.7
The level of expressed mRNA in the presence of chemical substance/The level of expressed mRNA in the absence of chemical substance (yeast gene YNL058C): 0.6
The level of expressed mRNA in the presence of chemical substance/The level of expressed mRNA in the absence of chemical substance (yeast gene YNL063W): 1.5
The level of expressed mRNA in the presence of chemical substance/The level of expressed mRNA in the absence of chemical substance (yeast gene YNL176C): 0.6
The level of expressed mRNA in the presence of chemical substance/The level of expressed mRNA in the absence of chemical substance (yeast gene YNL194C): 1.5
The level of expressed mRNA in the presence of chemical substance/The level of expressed mRNA in the absence of chemical substance (yeast gene YNL200C): 1.1
The level of expressed mRNA in the presence of chemical substance/The level of expressed mRNA in the absence of chemical substance (yeast gene YNL253W): 1.1
The level of expressed mRNA in the presence of chemical substance/The level of expressed mRNA in the absence of chemical substance (yeast gene YNL276C): 1.5
The level of expressed mRNA in the presence of chemical substance/The level of expressed mRNA in the absence of chemical substance (yeast gene YNL300W, incubated two hours with chemical substance): 0.7
The level of expressed mRNA in the presence of chemical substance/The level of expressed mRNA in the absence of chemical substance (yeast gene YNR051C): 2.1
The level of expressed mRNA in the presence of chemical substance/The level of expressed mRNA in the absence of chemical substance (yeast gene YOL026C): 1.2
The level of expressed mRNA in the presence of chemical substance/The level of expressed mRNA in the absence of chemical substance (yeast gene YOL031C): 2.4
The level of expressed mRNA in the presence of chemical substance/The level of expressed mRNA in the absence of chemical substance (yeast gene YOL084W, incubated two hours with substance): 6.4
The level of expressed mRNA in the presence of chemical substance/The level of expressed mRNA in the absence of chemical substance (yeast gene YOL101C): 0.2
The level of expressed mRNA in the presence of chemical substance/The level of expressed mRNA in the absence of chemical substance (yeast gene YOR022C): 1.7
The level of expressed mRNA in the presence of chemical substance/The level of expressed mRNA in the absence of chemical substance (yeast gene YOR087W): 1.2
The level of expressed mRNA in the presence of chemical substance/The level of expressed mRNA in the absence of chemical substance (yeast gene YOR138C): 1.8
The level of expressed mRNA in the presence of chemical substance/The level of expressed mRNA in the absence of chemical substance (yeast gene YOR253W): 0.5
The level of expressed mRNA in the presence of chemical substance/The level of expressed mRNA in the absence of chemical substance (yeast gene YOR267C): 1.4
The level of expressed mRNA in the presence of chemical substance/The level of expressed mRNA in the absence of chemical substance (yeast gene YOR338W): 1.4
The level of expressed mRNA in the presence of chemical substance/The level of expressed mRNA in the absence of chemical substance (yeast gene YOR391C): 2.3
The level of expressed mRNA in the presence of chemical substance/The level of expressed mRNA in the absence of chemical substance (yeast gene YPL005W): 1.2
The level of expressed mRNA in the presence of chemical substance/The level of expressed mRNA in the absence of chemical substance (yeast gene YPL087W, incubated two hours with chemical substance): 4.4
The level of expressed mRNA in the presence of chemical substance/The level of expressed mRNA in the absence of chemical substance (yeast gene YPL150W): 2.1
The level of expressed mRNA in the presence of chemical substance/The level of expressed mRNA in the absence of chemical substance (yeast gene YPL152W): 1.4
The level of expressed mRNA in the presence of chemical substance/The level of expressed mRNA in the absence of chemical substance (yeast gene YPL168W): 1.0
The level of expressed mRNA in the presence of chemical substance/The level of expressed mRNA in the absence of chemical substance (yeast gene YPL180W): 1.5
The level of expressed mRNA in the presence of chemical substance/The level of expressed mRNA in the absence of chemical substance (yeast gene YPL188W): 0.9
The level of expressed mRNA in the presence of chemical substance/The level of expressed mRNA in the absence of chemical substance (yeast gene YPL221W): 1.0
The level of expressed mRNA in the presence of chemical substance/The level of expressed mRNA in the absence of chemical substance (yeast gene YPL225W): 0.8
The level of expressed mRNA in the presence of chemical substance/The level of expressed mRNA in the absence of chemical substance (yeast gene YPL280W): 2.4
The level of expressed mRNA in the presence of chemical substance/The level of expressed mRNA in the absence of chemical substance (yeast gene YPR049C): 1.6
The level of expressed mRNA in the presence of chemical substance/The level of expressed mRNA in the absence of chemical substance (yeast gene YPR146C): 1.3
The level of expressed mRNA in the presence of chemical substance/The level of expressed mRNA in the absence of chemical substance (yeast gene YPR148C): 1.2
The level of expressed mRNA in the presence of chemical substance/The level of expressed mRNA in the absence of chemical substance (yeast gene YPR158W, incubated two hours with substance): 1.6
The level of expressed mRNA in the presence of chemical substance/The level of expressed mRNA in the absence of chemical substance (yeast gene YPR172W): 1.3
